Data: patent US20230415137A1, “PHOTOCATALYST COMPOSITION, PHOTOCATALYST COMPOSITION SOLUTION, PHOTOCATALYST MEMBER, METHOD FOR USING PHOTOCATALYST COMPOSITION, AND SPACE DISINFECTION METHOD” (priority 2020, published 2023)

Test system: indigenous bacteria collected from the ultrasonic humidifier
Assay: Bactericidal evaluation (photocatalyst composition solutions, first example group)
Assay type: cell-based
Settings: riboflavin sodium phosphate set to 10,000 ppm, no sacrificial agent
Method: The indigenous bacteria collected from the ultrasonic humidifier is adjusted to a predetermined concentration, then was added to an autoclave-sterilized normal bouillon medium (Eiken (register trade mark), manufactured by Eiken Chemical Co., Ltd.). Shaking culture for 24 hours was performed in a shaking incubator at 30° C. and 120 rpm. The solution when the number of bacteria reached about 1.5×10^9 CFU/ml was used as an inoculum solution.
Separately, the photocatalyst composition solutions obtained in the above Examples and Comparative Examples were also autoclave sterilized.
The inoculum solution was diluted with each of the photocatalyst composition solutions of the above Examples and Comparative Examples to prepare a solution having the number of bacteria of 1.5×10^7 CFU/ml, which was used as a test solution.
Two similar samples for each example and comparative example were prepared and stored under the following two conditions. The number of bacteria was measured using “Sani-Check BF” (manufactured by Biosan Laboratories, Inc.) and evaluation was performed according to the following evaluation criteria. […]

Compound: Cc1cc2nc3c(=O)[nH]c(=O)nc-3n(C[C@H](O)[C@H](O)[C@H](O)COP(=O)(O)O)c2cc1C [riboflavin sodium phosphate]
- bactericidal effect as worded in the text: a certain degree of bactericidal effect
